Measurements as given in patent US12264173B2 (GILEAD SCIENCES, INC., priority 2020, dated 2025).
Like-named read-outs stand apart in the source and are kept apart here.

Key:
Format in all cases: cell-based
HRV16 = HRV16 HeLa EC50 (cytopathic effect in H1-HeLa cells)
Outline: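 Read-out is luminescent cell viability (CellTiter-Glo) after 96 h of infection at 33 °C, scaled between uninfected and infected-untreated wells. Before infection with titrated virus, compounds went onto H1-HeLa cells as triplicate 3-fold dilution series.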

[1] = system: Dengue 2, New Guinea strain (NGC); assay: DENV moDC EC50 (qPCR in human monocyte-derived dendritic cells); settings: Table 3, human moDCs, 48 hours
Procedure: Human monocyte-derived dendritic cells (moDCs) were derived from CD14+ monocytes (AllCells) cultured in Human Mo-DC Differentiation medium containing GM-CSF and IL-4 (Miltenyi Biotec). On day 7, moDCs were harvested by mechanical disruption, washed and suspended in serum-free RPMI. moDCs were infected with Vero-derived Dengue 2, New Guinea strain (NGC) at a MOI=0.1 for two hours in serum-free RPMI with gentle agitation at 37° C. Cells were washed and resuspended in 10% serum-containing RPMI (Gibco, supplemented with sodium pyruvate, NEAA, Penicillin-Streptomycin). […] were plated in triplicate in 96-well plates with compounds dispensed at graded doses (Hewlett-Packard D300 Digital Dispenser). All wells were normalized to 0.25% DMSO. At 48 hours, cells were washed with 1×PBS and all supernatants removed. Total RNA was extracted using RNEasy 96 plates (Qiagen) and used to generate first-strand cDNA using XLT cDNA 5× Supermix (QuantaBio). cDNA was used as a template in a Taqman qPCR duplex reaction specific to DENV2 viral and GAPDH gene expression. EC50 values were determined using Prism Graphpad software, with normalization to a positive control and no compound negative control wells.

[2] = system: Dengue serotype 2 New Guinea C (NGC) strain; assay: DENV-2 Huh-7 EC50 (qPCR in Huh7 cells)
Procedure: Huh7 (Human hepatocarcinoma 7) cells were maintained in 10% FCS-containing DMEM complete media. On the day of the assay, cells were trypsinized (0.1% Trypsin-EDTA), washed and infected for 2 hours in serum-free DMEM with Dengue serotype 2 New Guinea C (NGC) strain at MOI=0.1 with gentle agitation at 37° C. After 2 hours, cells were washed with serum-free media and suspended in 10% FCS-containing DMEM (Gibco, supplemented with sodium pyruvate, NEAA, Penicillin-Streptomycin). 10^5 cells were plated in triplicate in 96-well plates with compounds dispensed at graded doses (Hewlett-Packard D300 Digital Dispenser). All wells were normalized to 0.25% DMSO. At 48 hours, cells were washed with 1×PBS and all supernatants removed. Total RNA was extracted using RNEasy 96 plates (Qiagen) and used to generate first-strand cDNA using XLT cDNA 5× Supermix (QuantaBio). cDNA was used as a template in a Taqman qPCR duplex reaction specific to DENV2 viral and GAPDH gene expression. EC50 values were determined using Prism Graphpad software, with normalization to a positive control and no compound negative control wells.

HCV Rep 1B = HCV Rep 1B EC50 (replicon luciferase)
Procedure: (§1) Compounds were serially diluted in ten steps of 1:3 dilutions in 384-well plates. All serial dilutions were performed in four replicates per compound within the same 384-well plate. […] To each well of a black polystyrene 384-well plate (Greiner Bio-one, Monroe, NC), 90 μL of cell culture medium (without Geneticin) containing 2000 suspended HCV replicon cells was added with a Biotek μFlow workstation. For compound transfer into cell culture plates, 0.4 μL of compound solution from the compound serial dilution plate was transferred to the cell culture plate on a Biomek FX workstation. The DMSO concentration in the final assay wells was 0.44%. The plates were incubated for 3 days at 37° C. with 5% CO2 and 85% humidity. The HCV replicon assay was a multiplex assay, able to assess both cytotoxicity and antireplicon activity from the same well. The CC50 assay was performed first. The media in the 384-well cell culture plate was aspirated, and the wells were washed four times with 100 μL of PBS each, using a Biotek ELX405 plate washer. A volume of 50 μL of a solution containing 400 nM calcein AM (Anaspec, Fremont, CA) in 1×PBS was added to each well of the plate with a Biotek μFlow workstation. The plate was incubated for 30 min at room temperature before the fluorescence signal (excitation 490 nm, emission 520 nm) was measured with a Perkin-Elmer Envision plate reader. The EC50 assay was performed in the same wells as the CC50 assay. The calcein-PBS solution in the 384-well cell culture plate was aspirated with a Biotek ELX405 plate washer. A volume of 20 μL of Dual-Glo luciferase buffer (Promega, Madison, WI) was added to each well of the plate with a Biotek μFlow Workstation. The plate was incubated for 10 min at room temperature. A volume of 20 μL of a solution containing a 1:100 mixture of Dual-Glo Stop & Glo substrate (Promega, Madison, WI) and Dual-Glo Stop & Glo buffer (Promega, Madison, WI) was added to each well of the plate with a Biotek μFlow Workstation. The plate was then incubated at room temperature for 10 min before the luminescence signal was measured with a Perkin-Elmer Envision Plate Reader.

HCV Rep 2A = HCV Rep 2A EC50 (replicon luciferase)
Procedure: as §1

[3] = 96 h, Table 3, H1-HeLa cells, 96 h, read-out: HRV16 HeLa EC50
[4] = HeLa, read-out: HRV16 HeLa EC50, Table 5 comparative activity, 2',3'-OH vs -OC(O)iPr
[5] = Dengue virus, DENV2, Huh-7, Table 3, Huh7 cells, 48 hours, read-out: DENV-2 Huh7 EC50
[6] = Dengue virus, Huh-7, read-out: DENV Huh7 EC50
[7] = Hepatitis C virus, 72 h, Table 4, replicon cells, 3 days, read-out: HCV Rep 1B EC50
[8] = Hepatitis C virus, 72 h, Table 4, replicon cells, 3 days, read-out: HCV Rep 2A EC50
[9] = Table 3, H1-HeLa cells, 96 h, read-out: HRV16 HeLa EC50
[10] = Table 3, Huh7 cells, 48 hours, read-out: DENV-2 Huh7 EC50
[11] = Table 4, replicon cells, 3 days, read-out: HCV Rep 1B EC50
[12] = Table 4, replicon cells, 3 days, read-out: HCV Rep 2A EC50

Structure (SMILES) | EC50 (HRV16; [3]) | EC50 ([1]; Dengue virus, Dendritic cell) | EC50 [2, 5] | EC50 (HCV Rep 1B; [7]) | EC50 (HCV Rep 2A; [8]) | EC50 (HRV16; [9]) | further results
COC(=O)[C@H](C)N[P@](=O)(OC[C@@]1(C#N)O[C@@H](c2ccc3c(N)ncnn23)[C@H](OC(=O)C(C)C)[C@@H]1OC(=O)C(C)C)Oc1ccccc1 (single isomer, unassigned) [Example 140] | 83 nM | 90 nM | 1220 nM | 369 nM | 542 nM | – | EC50 (HRV16; [4]): 83 nM; EC50 [2, 6]: 1210 nM; EC50 (HCV Rep 1B; Hepatitis C virus, read-out: HCV Rep1B EC50): 368 nM; EC50 (HCV Rep 2A; Hepatitis C virus, read-out: HCV Rep2A EC50): 542 nM
CCC(=O)O[C@H]1[C@H](c2ccc3c(N)ncnn23)O[C@](C#N)(CO[P@@](=O)(N[C@@H](C)C(=O)OC)Oc2ccccc2)[C@H]1OC(=O)CC (single isomer, unassigned) [Example 143] | 221 nM | 164 nM | 3130 nM | – | – | – | –
CCOC(=O)[C@H](C)N[P@](=O)(OC[C@@]1(C#N)O[C@@H](c2ccc3c(N)ncnn23)[C@H](OC(=O)C(C)C)[C@@H]1OC(=O)C(C)C)Oc1ccccc1 (single isomer, unassigned) [Example 144] | 93 nM | 31 nM | 1180 nM | 442 nM | 1270 nM | – | EC50 (HRV16; [4]): 92 nM; EC50 [2, 6]: 1280 nM
CC(C)C(=O)O[C@H]1[C@H](c2ccc3c(N)ncnn23)O[C@](C#N)(COP(=O)(N[C@@H](C)C(=O)OCC2CCOCC2)Oc2ccccc2)[C@H]1OC(=O)C(C)C (single isomer, unassigned) [Example 183] | – | – | – | – | – | 88 nM | EC50 [1]: 142 nM; EC50 [2, 10]: 1110 nM
CC(C)C(=O)O[C@H]1[C@H](c2ccc3c(N)ncnn23)O[C@](C#N)(COP(=O)(N[C@@H](C)C(=O)OC2COC2)Oc2ccccc2)[C@H]1OC(=O)C(C)C (single isomer, unassigned) [Example 186] | – | – | – | – | – | 44 nM | EC50 [2, 10]: 1730 nM; EC50 (HCV Rep 1B; [11]): 306 nM; EC50 (HCV Rep 2A; [12]): 836 nM
CC(C)C(=O)O[C@H]1[C@H](c2ccc3c(N)ncnn23)O[C@](C#N)(COP(=O)(N[C@@H](C)C(=O)OCC2COC2)Oc2ccccc2)[C@H]1OC(=O)C(C)C (single isomer, unassigned) [Example 201] | – | – | – | – | – | 177 nM | EC50 [1]: 57 nM; EC50 [2, 10]: 317 nM
CCC(CC)COC(=O)[C@H](C)N[P@](=O)(OC[C@@]1(C#N)O[C@@H](c2ccc3c(N)ncnn23)C(OC(=O)C(C)C)[C@@H]1OC(=O)C(C)C)Oc1ccccc1 (stereo in doubt) [Example 86, (2R,3S,4R,5S)-5-(4-aminopyrrolo[2,1-f][1,2,4]triazin-7-yl)-2-cyano-2-((((S)-(((S)-1-(2-ethylbutoxy)-1-oxopropan-2-yl)amino)(phenoxy)phosphoryl)oxy)methyl) tetrahydrofuran-3,4-diyl bis(2-methylpropanoate)] | 192 nM | 239 nM | 1410 nM | 929 nM | 1480 nM | – | –
CC(C)C(=O)O[C@H]1[C@H](c2ccc3c(N)ncnn23)O[C@](C#N)(CO[P@@](=O)(N[C@@H](C)C(=O)OC2CCCCC2)Oc2ccccc2)[C@H]1OC(=O)C(C)C [Example 77, (2R,3S,4S,5S)-5-(4-aminopyrrolo[2,1-f][1,2,4]triazin-7-yl)-2-cyano-2-((((S)-(((S)-1-(cyclohexyloxy)-1-oxopropan-2-yl)amino)(phenoxy)phosphoryl)oxy)methyl) tetrahydrofuran-3,4-diyl bis(2-methylpropanoate)] | 152 nM | 185 nM | 1490 nM | 608 nM | 936 nM | – | –
CCC(=O)O[C@H]1[C@H](c2ccc3c(N)ncnn23)O[C@](C#N)(CO[P@@](=O)(N[C@@H](C)C(=O)OC2CCCCC2)Oc2ccccc2)[C@H]1OC(=O)CC [Example 82, (2R,3S,4S,5S)-5-(4-aminopyrrolo[2,1-f][1,2,4]triazin-7-yl)-2-cyano-2-((((S)-(((S)-1-(cyclohexyloxy)-1-oxopropan-2-yl)amino)(phenoxy)phosphoryl)oxy)methyl) tetrahydrofuran-3,4-diyl dipropionate] | 201 nM | 786 nM | 3980 nM | 359 nM | 813 nM | – | –
CCC(=O)O[C@H]1[C@H](c2ccc3c(N)ncnn23)O[C@](C#N)(CO[P@@](=O)(N[C@@H](C)C(=O)OC(C)C)Oc2ccccc2)[C@H]1OC(=O)CC [Example 90, (2R,3S,4S,5S)-5-(4-Aminopyrrolo[2,1-f][1,2,4]triazin-7-yl)-2-cyano-2-((((S)-(((S)-1-isopropoxy-1-oxopropan-2-yl)amino)(phenoxy)phosphoryl)oxy)methyl) tetrahydrofuran-3,4-diyl dipropionate] | 259 nM | 677 nM | 2160 nM | 579 nM | 1140 nM | – | –
CCC(=O)O[C@H]1[C@H](c2ccc3c(N)ncnn23)O[C@](C#N)(CO[P@@](=O)(N[C@@H](C)C(=O)OCC2CC2)Oc2ccccc2)[C@H]1OC(=O)CC [Example 99] | – | – | – | – | – | 116 nM | EC50 (HCV Rep 1B; [11]): 313 nM; EC50 (HCV Rep 2A; [12]): 599 nM
COC(=O)[C@H](C)N[P@](=O)(OC[C@@]1(C#N)O[C@@H](c2ccc3c(=N)n(COP(=O)(O)O)cnn23)[C@H](OC(=O)C(C)C)[C@@H]1OC(=O)C(C)C)Oc1ccccc1 [Example 259, (2R,3S,4S,5S)-2-cyano-5-(4-imino-3-((phosphonooxy)methyl)-3,4-dihydropyrrolo[2,1-f][1,2,4]triazin-7-yl)-2-((((S)-(((S)-1-methoxy-1-oxopropan-2-yl)amino)(phenoxy)phosphoryl)oxy)methyl)tetrahydrofuran-3,4-diyl bis(2-methylpropanoate)] | – | – | 1860 nM | 1120 nM | 2080 nM | – | –
